Results on 15 molecules are retold here after patent publication US11434242B2, “Dopamine-b-hydroxylase inhibitors” (BIAL-PORTELA & Cª, S.A., priority 2017, dated 2022).

The target in one experiment is T1, DβH (Homo sapiens, UniProt P09172).
T1 construct: cellular homogenate (75 μg total protein); host or cells: SK-N-SH cells (homogenate)
T1 sequence (P09172 1-617): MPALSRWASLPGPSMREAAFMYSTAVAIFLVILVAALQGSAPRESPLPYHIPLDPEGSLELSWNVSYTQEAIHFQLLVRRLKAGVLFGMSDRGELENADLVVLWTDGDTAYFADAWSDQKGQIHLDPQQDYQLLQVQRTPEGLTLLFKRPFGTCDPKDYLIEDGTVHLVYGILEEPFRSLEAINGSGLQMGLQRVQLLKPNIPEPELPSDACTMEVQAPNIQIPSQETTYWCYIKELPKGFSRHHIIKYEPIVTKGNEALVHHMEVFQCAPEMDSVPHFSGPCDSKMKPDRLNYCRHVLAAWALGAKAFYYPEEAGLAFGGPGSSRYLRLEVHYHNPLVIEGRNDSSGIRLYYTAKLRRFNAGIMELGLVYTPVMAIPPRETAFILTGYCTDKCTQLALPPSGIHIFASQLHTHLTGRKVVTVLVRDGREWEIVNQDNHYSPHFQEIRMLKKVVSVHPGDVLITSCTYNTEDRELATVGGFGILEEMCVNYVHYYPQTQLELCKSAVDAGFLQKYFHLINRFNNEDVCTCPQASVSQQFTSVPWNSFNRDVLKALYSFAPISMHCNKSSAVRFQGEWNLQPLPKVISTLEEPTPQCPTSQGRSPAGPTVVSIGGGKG
In words: DβH inhibition assay in SK-N-SH cellular homogenates (tyramine to octopamine). In kind it is biochemical. Particulars: SK-N-SH cell homogenate; for SKNSH (0.1 μM), activity in % of control: inhibitor 0.1 μM; for SKNSH (1 μM), activity in % of control: inhibitor 1 μM.

Experiment [1] concerns the target T2, Dopamine beta hydroxylase (Homo sapiens, UniProt P09172).
T2 construct: 125 μl of plasma; tissue Instituto Português do Sangue Transplantação; host or cells: human plasma from healthy donors
T2 sequence (P09172 40-617 limits assumed): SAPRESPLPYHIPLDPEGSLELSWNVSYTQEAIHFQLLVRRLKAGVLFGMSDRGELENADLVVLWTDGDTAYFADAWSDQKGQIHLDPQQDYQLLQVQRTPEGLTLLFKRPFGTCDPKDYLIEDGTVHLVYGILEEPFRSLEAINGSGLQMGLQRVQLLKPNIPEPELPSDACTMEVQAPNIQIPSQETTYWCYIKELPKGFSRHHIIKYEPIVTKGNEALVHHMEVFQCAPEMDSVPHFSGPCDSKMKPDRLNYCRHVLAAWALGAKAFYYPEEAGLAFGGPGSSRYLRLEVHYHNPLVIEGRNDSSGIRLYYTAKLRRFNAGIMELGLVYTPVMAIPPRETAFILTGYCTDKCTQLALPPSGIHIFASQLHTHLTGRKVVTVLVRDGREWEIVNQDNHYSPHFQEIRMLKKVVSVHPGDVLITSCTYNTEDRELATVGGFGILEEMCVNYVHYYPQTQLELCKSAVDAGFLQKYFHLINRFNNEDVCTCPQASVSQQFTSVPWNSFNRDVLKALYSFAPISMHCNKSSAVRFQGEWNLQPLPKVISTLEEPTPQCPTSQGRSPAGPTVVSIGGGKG
Briefly: Dopamine beta hydroxylase activity in human plasma. Type of experiment: biochemical. Particulars: for Plasma (0.1 μM), activity in % of control: inhibitor 0.1 μM; for Plasma (1 μM), activity in % of control: inhibitor 1 μM. The method in brief:
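Octopamine production from tyramine over 45 min at 37° C, measured photometrically at 330 nm after SCX extraction and periodate oxidation against an octopamine standard curve, indicates plasma DβH activity. Compounds tested at final 10, 100 and 1000 nM in human plasma, pH 5.0 cofactor buffer, 10 min preincubation; results as % of control.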

`O=C(O)Cc1[nH]c(=S)n2c1[C@@H]1C[C@]1(c1cc(Cl)ccc1F)C2` [Example 52, 2-((5aS,6aR)-5a-(5-chloro-2-fluorophenyl)-3-thioxo-2,3,5,5a,6,6a-hexahydrocyclopropa[3,4]pyrrolo[1,2-c]imidazol-1-yl)acetic Acid]: on DβH, the “SKNSH (0.1 μM), activity in % of control” value was 9.2 % of control and the “SKNSH (1 μM), activity in % of control” value was 0.2 % of control. In experiment [1], the “Plasma (0.1 μM), activity in % of control” value is listed as 10.3 % of control and the “Plasma (1 μM), activity in % of control” value is given as 1.6 % of control.
The corresponding values for `O=C(O)Cc1[nH]c(=S)n2c1[C@@H]1C[C@]1(c1c(F)ccc(Br)c1F)C2` [Example 51, 2-((5aS,6aR)-5a-(3-bromo-2,6-difluorophenyl)-3-thioxo-2,3,5,5a,6,6a-hexahydrocyclopropa[3,4]pyrrolo[1,2-c]imidazol-1-yl)acetic Acid] are 0.4 % of control, 0 % of control, 5.7 % of control and 0 % of control.
For `CCOC(=O)Cc1[nH]c(=S)n2c1[C@@H]1C[C@]1(c1cc(Cl)ccc1F)C2` [Example 54, Ethyl 2-((5aS,6aR)-5a-(5-chloro-2-fluorophenyl)-3-thioxo-2,3,5,5a,6,6a-hexahydrocyclopropa[3,4]pyrrolo[1,2-c]imidazol-1-yl)acetate] the same measures were 33.8 % of control, 4.2 % of control, 32.2 % of control and 3.4 % of control.
Consider `O=C(O)Cc1[nH]c(=S)n2c1[C@@H]1C[C@]1(c1cc(F)cc(Cl)c1)C2` [Example 53, 2-((5aS,6aR)-5a-(3-chloro-5-fluorophenyl)-3-thioxo-2,3,5,5a,6,6a-hexahydrocyclopropa[3,4]pyrrolo[1,2-c]imidazol-1-yl)acetic Acid], for which, on DβH, the “SKNSH (0.1 μM), activity in % of control” value is recorded as 13.4 % of control and the “SKNSH (1 μM), activity in % of control” value was 0 % of control. Moreover, in experiment [1], the “Plasma (0.1 μM), activity in % of control” value is 26.2 % of control and the “Plasma (1 μM), activity in % of control” value is recorded as 2.7 % of control.
For `CCOC(=O)Cc1[nH]c(=S)n2c1[C@@H]1C[C@]1(c1cc(F)cc(Cl)c1)C2` [Example 55, Ethyl 2-((5aS,6aR)-5a-(3-chloro-5-fluorophenyl)-3-thioxo-2,3,5,5a,6,6a-hexahydrocyclopropa[3,4]pyrrolo[1,2-c]imidazol-1-yl)acetate] the same measures were 48.9 % of control, 3.9 % of control, 62.1 % of control and 11.1 % of control.
The corresponding values for `NC(=O)Cc1[nH]c(=S)n2c1[C@@H]1C[C@]1(c1cc(F)cc(Cl)c1)C2` [Example 58, 2-((5aS,6aR)-5a-(3-chloro-5-fluorophenyl)-3-thioxo-2,3,5,5a,6,6a-hexahydrocyclopropa[3,4]pyrrolo[1,2-c]imidazol-1-yl)acetamide] are 56.8 % of control, 9.3 % of control, 59.2 % of control and 14.0 % of control.
Turning to `O=C(O)Cc1[nH]c(=S)n2c1[C@@H]1C[C@]1(c1cc(F)cc(F)c1)C2` [Example 7, 2-((5aS,6aR)-5a-(3,5-difluorophenyl)-3-thioxo-2,3,5,5a,6,6a-hexahydrocyclopropa[3,4]pyrrolo[1,2-c]imidazol-1-yl)acetic Acid], on DβH, the “SKNSH (0.1 μM), activity in % of control” value is 45.6 % of control and the “SKNSH (1 μM), activity in % of control” value is given as 3.6 % of control.
On to `NC(=O)Cc1[nH]c(=S)n2c1[C@@H]1C[C@]1(c1c(F)ccc(Br)c1F)C2` [Example 57, 2-((5aS,6aR)-5a-(3-bromo-2,6-difluorophenyl)-3-thioxo-2,3,5,5a,6,6a-hexahydrocyclopropa[3,4]pyrrolo[1,2-c]imidazol-1-yl)acetamide], for which, on DβH, the “SKNSH (0.1 μM), activity in % of control” value was 11.6 % of control and the “SKNSH (1 μM), activity in % of control” value is 0.2 % of control. In addition, in experiment [1], the “Plasma (0.1 μM), activity in % of control” value is 18.1 % of control and the “Plasma (1 μM), activity in % of control” value is 0.1 % of control.
As for `CCCCN(C)C(=O)Cc1[nH]c(=S)n2c1[C@@H]1C[C@]1(c1cc(F)ccc1F)C2` [Example 38, N-butyl-2-((5aS,6aR)-5a-(2,5-difluorophenyl)-3-thioxo-2,3,5,5a,6,6a-hexahydrocyclopropa[3,4]pyrrolo[1,2-c]imidazol-1-yl)-N-methylacetamide], on DβH, the “SKNSH (1 μM), activity in % of control” value was 20.9 % of control.
For `O=C(O)Cc1[nH]c(=S)n2c1C[C@@H](c1c(F)c(F)cc(F)c1F)C2` [Example 10, (S)-2-(6-(2,3,5,6-tetrafluorophenyl)-3-thioxo-3,5,6,7-tetrahydro-2H-pyrrolo[1,2-c]imidazol-1-yl)acetic Acid], on DβH, the “SKNSH (0.1 μM), activity in % of control” value is on record as 46.4 % of control and the “SKNSH (1 μM), activity in % of control” value is reported as 2.1 % of control.
Take `CS(=O)(=O)Cc1[nH]c(=S)n2c1C[C@@H](c1c(F)c(F)cc(F)c1F)C2` [Example 47, (S)-1-(methylsulfonylmethyl)-6-(2,3,5,6-tetrafluorophenyl)-6,7-dihydro-2H-pyrrolo[1,2-c]imidazole-3(5H)-thione]: the “SKNSH (1 μM), activity in % of control” value at DβH is 62.9 % of control.
Still for that read-out and setting: under `CCCCN(C)CCc1[nH]c(=S)n2c1[C@@H]1C[C@]1(c1cc(F)ccc1F)C2.Cl` [Example 39, (5aS,6aR)-1-(2-(butyl(methyl)amino)ethyl)-5a-(2,5-difluorophenyl)-5,5a,6,6a-tetrahydrocyclopropa[3,4]pyrrolo[1,2-c]imidazole-3(2H)-thione Hydrochloride] stands 29.8 % of control; under `O=C(O)c1[nH]c(=S)n2c1C[C@@H](c1cc(F)cc(F)c1)C2` [Example 43, (S)-6-(3,5-difluorophenyl)-3-thioxo-3,5,6,7-tetrahydro-2H-pyrrolo[1,2-c]imidazole-1-carboxylic Acid], 45.6 % of control; under `N#CNC(=O)Cc1[nH]c(=S)n2c1C[C@@H](c1c(F)c(F)cc(F)c1F)C2` [Example 19, (S)—N-cyano-2-(6-(2,3,5,6-tetrafluorophenyl)-3-thioxo-3,5,6,7-tetrahydro-2H-pyrrolo[1,2-c]imidazol-1-yl)acetamide], 16.4 % of control.
Same read-out and setting: then `Fc1ccc(F)c([C@]23C[C@H]2c2c(CCc4ccccc4)[nH]c(=S)n2C3)c1` [Example 48, (5aS,6aR)-5a-(2,5-difluorophenyl)-1-phenethyl-5,5a,6,6a-tetrahydrocyclopropa[3,4]pyrrolo[1,2-c]imidazole-3(2H)-thione], with 48.4 % of control.
